Assay results as given in patent publication US20250381220A1, “MAGNESIUM-L-THREONATE AND NEUROTRANSMITTER COMPOSITIONS AND RELATED METHODS” (Neuro Supplements, LLC, priority 2020, published 2025).

Test system: Male Wistar Rats
Assay: Morris Water Maze (MWM) probe test
Assay type: in vivo, rat
Settings: 21 days through drinking water, probe test day 21, FIG. 4, MgT 435, PS 60 mg/kg bw/day

phosphatidylserine [PS] was tested, and the “time spent in target quadrant” value was “significant increase”.
